# Results reported in ChEMBL document CHEMBL1125753, “Absolute structure-cytotoxic activity relationships of steganacin congeners and analogues” (1991).
# How the values were obtained:
# [1] = system: KB; test: In vitro effective dose to inhibit KB cell growth from a human epidermoid carcinoma.; format: functional; settings: for EC50: Homo sapiens, KB, read-out: ED50 (the source's name)
# [2] = system: Tetrahymena pyriformis; test: In vitro minimum inhibition concentration to inhibit the regeneration of cilia in Tetrahymena pyriformis W.; format: functional
# [3] = Tetrahymena pyriformis, read-out: MIC
SMILES,EC50 [1] [µg/mL],"MIC [2, 3] [µg/mL]",ED50 [1] [µg/mL],further results
COc1cc2c(c(OC)c1OC)-c1cc3c(cc1[C@H](O)[C@H]1COC(=O)[C@H]1C2)OCO3,16,–,–,–
COc1cc2c(c(OC)c1OC)-c1cc3c(cc1[C@@H](O)[C@H]1COC(=O)[C@@H]1C2)OCO3,5,–,–,–
COc1cc2c(c(OC)c1OC)-c1cc3c(cc1[C@H](C#N)[C@H]1COC(=O)[C@@H]1C2)OCO3,1.52,–,–,–
COc1cc2c(c(OC)c1OC)-c1cc3c(cc1[C@H](O[C@@H]1O[C@@H](CO)[C@@H](O)[C@H](O)[C@@H]1O)[C@H]1COC(=O)[C@@H]1C2)OCO3,> 100,–,–,–
COc1cc2c(c(OC)c1OC)-c1cc3c(cc1[C@H](O[C@@H]1O[C@@H](COC(C)=O)[C@@H](OC(C)=O)[C@H](OC(C)=O)[C@@H]1OC(C)=O)[C@H]1COC(=O)[C@@H]1C2)OCO3,56,–,–,–
COc1cc2c(c(OC)c1OC)-c1cc3c(cc1[C@H](O[C@@H]1O[C@H]4CO[C@@H](c5cccs5)O[C@H]4[C@H](O)[C@@H]1O)[C@H]1COC(=O)[C@@H]1C2)OCO3,> 100,–,–,–
COc1cc2c(c(OC)c1OC)-c1cc3c(cc1[C@H](OC(=O)c1ccc(Br)cc1)[C@H]1COC(=O)[C@@H]1C2)OCO3,3.9,–,–,–
COc1cc2c(c(OC)c1OC)-c1cc3c(cc1[C@H](O)[C@H]1COC(=O)[C@@H]1C2)OCO3,0.53,–,–,–
COc1cc2c(c(OC)c1OC)-c1cc3c(cc1[C@H](OCCN(C)C)[C@H]1COC(=O)[C@@H]1C2)OCO3,1.5,–,–,–
COc1cc2c(c(OC)c1OC)-c1cc3c(cc1C(=O)[C@H]1COC(=O)[C@@H]1C2)OCO3,6.2,–,–,–
COc1cc2cc(c1Cl)N(C)C(=O)C[C@H](OC(=O)C(C)C)[C@]1(C)O[C@H]1[C@H](C)[C@@H]1C[C@@](O)(NC(=O)O1)[C@H](OC)/C=C/C=C(\C)C2,–,< 0.5,–,–
COc1cc(C2c3cc4c(cc3CC3COC(=O)[C@@H]32)OCO4)cc(OC)c1OC (mixture of isomers),–,–,<0.3,–
COc1cc2c(c(OC)c1OC)-c1cc3c(cc1C(OC(C)=O)[C@H]1COC(=O)[C@@H]1C2)OCO3 (mixture of isomers),15.7,> 20,–,–
COc1cc(C[C@H]2C(=O)OCC2Cc2ccc3c(c2)OCO3)cc(OC)c1OC (mixture of isomers),16.8,> 20,–,–
COc1cc2c(c(OC)c1OC)-c1cc3c(cc1[C@@H](OC(C)=O)C1COC(=O)[C@H]1C2)OCO3 (mixture of isomers) [STEGANACIN],< 0.3,> 20,–,–
COc1cc2c(c(OC)c1OC)-c1cc3c(cc1C[C@H](CO)[C@@H](CO)C2)OCO3 (racemic),75,–,–,–
COc1cc2c(c(OC)c1OC)-c1cc3c(cc1C[C@H](COC(C)=O)[C@@H](COC(C)=O)C2)OCO3 (racemic),15,–,–,–
COc1cc2c(c(OC)c1OC)-c1cc3c(cc1C[C@H]1COC(=O)[C@H]1C2)OCO3 (racemic) [PICROSTEGANE],–,–,28,–
COc1cc2c(c(OC)c1OC)-c1cc3c(cc1C[C@H]1COC(=O)[C@@H]1C2)OCO3 (racemic) [STEGANE],–,–,0.94,–
COc1cc2c(c(OC)c1OC)-c1cc3c(cc1CC1COC(=O)C1C2)OCO3 (racemic; form 1),–,–,1.13,–
COc1cc2c(c(OC)c1OC)-c1cc3c(cc1CC1COC(=O)C1C2)OCO3 (racemic; form 2),–,> 20,<0.3,–

SMILES,EC50 [1] [µg/mL],"MIC [2, 3] [µg/mL]",ED50 [1] [µg/mL],further results
COc1cc2c(c(OC)c1OC)-c1cc3c(cc1CC1COC(=O)C1C2)OCO3 (racemic; form 3),–,–,1.33,–
COc1cc(C2c3cc4c(cc3CC3COC(=O)[C@@H]32)OCO4)cc(OC)c1OC (stereo in doubt),–,> 20,1.75,–
COc1cc2c(c(OC)c1OC)-c1cc3c(cc1C[C@@H]1COC(=O)[C@@H]1C2)OCO3 (stereo in doubt; (+)),–,–,4.1,MIC [2]: >20 µg/mL
COc1cc(C[C@@H]2C(=O)OC[C@H]2Cc2ccc3c(c2)OCO3)cc(OC)c1OC (stereo in doubt; (+)),5.2,–,–,MIC [2]: <20 µg/mL
COc1cc(CC2COCC2Cc2ccc3c(c2)OCO3)cc(OC)c1OC (stereo in doubt; (+)) [CISBURSERAN],–,–,–,MIC [2]: 20 µg/mL
COc1cc2c(c(OC)c1OC)-c1cc3c(cc1C[C@H]1COC(=O)[C@H]1C2)OCO3 (stereo in doubt; (+)) [PICROSTEGANE],–,> 20,32,–
COc1cc2c(c(OC)c1OC)-c1cc3c(cc1C[C@@H]1COC(=O)[C@@H]1C2)OCO3 (stereo in doubt; (-)),–,20,<0.3,–
COc1cc(C[C@@H]2C(=O)OC[C@H]2Cc2ccc3c(c2)OCO3)cc(OC)c1OC (stereo in doubt; (-)),–,> 20,–,–
COc1cc(CC2COCC2Cc2ccc3c(c2)OCO3)cc(OC)c1OC (stereo in doubt; (-)) [CISBURSERAN],–,> 20,–,–
COc1cc2c(c(OC)c1OC)-c1cc3c(cc1C[C@H]1COC(=O)[C@H]1C2)OCO3 (stereo in doubt; (-)) [PICROSTEGANE],–,–,8.8,–
COc1cc2c(c(OC)c1OC)-c1cc3c(cc1[C@@H](OC(C)=O)[C@H]1COC(=O)[C@@H]1C2)OCO3 (stereo in doubt; form 1),–,–,1.75,–
COc1cc2c(c(OC)c1OC)-c1cc3c(cc1C[C@H]1COC(=O)[C@@H]1C2)OCO3 (stereo in doubt; form 1) [STEGANE],–,–,86,–
COc1cc2c(c(OC)c1OC)-c1cc3c(cc1[C@@H](OC(C)=O)[C@H]1COC(=O)[C@@H]1C2)OCO3 (stereo in doubt; form 2),–,> 20,61,–
COc1cc2c(c(OC)c1OC)-c1cc3c(cc1C[C@H]1COC(=O)[C@@H]1C2)OCO3 (stereo in doubt; form 2) [STEGANE],–,> 20,0.49,–
COc1cc2c(c(OC)c1OC)-c1cc3c(cc1[C@@H](OC(C)=O)[C@H]1COC(=O)[C@@H]1C2)OCO3 (stereo in doubt; form 3),–,–,16.6,–
COc1cc2c(c(OC)c1OC)-c1cc3c(cc1C[C@H]1COC(=O)[C@@H]1C2)OCO3 (stereo in doubt; form 3) [STEGANE],–,–,94,–
COc1cc2c(c(OC)c1OC)-c1cc3c(cc1C[C@H]1COC(=O)[C@@H]1C2)OCO3 (stereo in doubt; form 4) [STEGANE],–,–,0.47,–
COc1cc2c(c(OC)c1OC)-c1cc3c(cc1[C@H](OC(C)=O)[C@H]1COC(=O)[C@@H]1C2)OCO3 [(-)-STEGANACIN],< 0.3,> 20,–,–
COc1cc2c(c(OC)c1OC)-c1ccc(OC)c(=O)cc1[C@@H](NC(C)=O)CC2 [COLCHICINE],< 0.3,> 20,–,–
COc1cc([C@@H]2c3cc4c(cc3[C@H](O)[C@H]3COC(=O)[C@H]23)OCO4)cc(OC)c1OC [PODOFILOX],< 0.3,> 20,–,–
